This is an account of results in patent publication US8765972B2 (priority 2009, dated 2014).

Where two headings read alike, the source gives them in different places.

For series [1] the following is noted: male, Balb, athymic Nu/Nu, mouse, in vivo, po.
Text: (§1) Balb, athymic Nu/Nu male mice, from Harlan (Italy), were maintained in agreement with the European Communities Council Directive no. 86/609/EEC concerning the protection of animals used for experimental or other scientific purposes, in cages with paper filter cover, food and bedding sterilized and acidified water. Fragments of Capan-1 human pancreatic cancer tumors were implanted subcutaneously. […] Each group included seven animals. The treatment started one day after randomization. Compound of formula (I) was administered by oral route as a methocel suspension at the indicated doses and times. Tumor dimension was measured regularly by calipers during the experiments and tumor mass was calculated as described in Simeoni M. et al., Cancer Res 64, 1094-1101 (2004).
The target of series [2] is T1, PARP-1 (Homo sapiens (Human), UniProt P09874). Description: biochemical. As to conditions: PARP-1 (Kd).
Experimental: (§2) Affinity evaluation of the tested compounds and their selectivity with respect to the different PARP isoforms of interest was assessed in a displacement assay.
(§3) The polarization signal can be measured, e.g., by a plate reader such as the Saphire2 (Tecan). The displacement ability of the test compound is in correlation with the compound affinity for the NAD pocket of the enzyme.
(§4) In all of the experiments, the polarization signal was measured using a Saphire2 plate reader (Tecan). Data analysis was performed using Dynafit software. In particular, titration data were fitted to the following equilibria: Enzyme+probe<==>Complex Enzyme-probe, while displacement data were fitted to the following equilibria: Enzyme+probe<==>Complex Enzyme-probe, Enzyme+Compound<==>Complex Enzyme-Compound, whereby binding of probe and compound on the enzyme are mutually exclusive (pure competitive mechanism). Displacement data were also fitted using Excell spreadsheet (Microsoft Inc. Seattle, USA) to a four parameter logistic model (4PL), or Hill-Slope model to calculate DC50s where the DC50 value represents the compound concentration at which the polarization signal is diminished by 50% compared to untreated controls.
(§5) In agreement, affinity binding constants (KD) were determined by fitting with a pure competitive mechanism. KD values, are the average of three independent experiments.
Series [3] has as its system PAR formation in HeLa cells. Description: cells. As to conditions: Homo sapiens, read-out: PAR assay (IC50).
Experimental: Cellular PAR levels were measured by immunocytochemistry, and quantified using an ArrayScan vTi instrument (Cellomics Thermo Scientific). […] Test compounds were then added at the required concentration for 30'. […] After 3 washes in PBS, wells incubated in PBS (w/v) 5% FBS 0.05% Tween20 containing 2 μg/mL Cy2-conjugated Goat anti mouse secondary antibody (Amersham Pharmacia Biotech cat. […] At least 10 fields, corresponding to at least 900 cells, were read for each well. […] X is the logarithm of concentration. IC50 is the response; IC50 starts at Bottom and goes to Top with a sigmoid shape.
The target in series [4] is T1, PARP-1. As to conditions: for DC50: read-out: PARP-1 (DC50).
Experimental: as §2, §3, §4, §5
For series [5] the following is noted: male, Balb, Nu/Nu, mouse, in vivo, 10 mg/kg.
Experimental: The compounds were formulated in 10% tween 80/dextrose for intravenous bolus administration while oral administrations were performed using the compounds formulated in 0.5% methylcellulose. […] Plasma samples were prepared by plasma proteins precipitation adding 200 μL of methanol to 10 μL of plasma in a 96 well plate. […] The supernatant was considered as final extract and injected onto the LC-MS-MS system (HPLC system: Hewlett Packard 1100 series using Atlantis HILIC Silica 50*2.1 mm 5.0 μm analytical column; MS instrument: Perkin Elmer SCIEX API 2000 and ionization performed with Turbo Ion Spray in positive ion mode). Lower limit of quantification is 5.0 ng/mL, upper limit of quantification is 10000 ng/mL. Analysis was performed using the Watson package (version 6.4.0.04) and Excel spreadsheet (Microsoft Inc. Seattle, USA). Non-compartmental method (linear trapezoidal rule and linear regression analysis of natural log-transformed plasma concentrations vs. time data) was used. After intravenous dosing, Co was set equal to Co 083 Absolute bioavailability (F) was calculated from the ratio of average oral to IV (intravenous) dose-normalized plasma AUC (area under curve) values.
A further series is described as follows: in vivo. As to conditions: male, Balb, Nu/Nu, mouse, 10 mg/kg; for Vd / clearance: iv; for AUC(0-t) / half-life: po.
In the next series the target is PARP-3 (Homo sapiens (Human), UniProt Q9Y6F1). As to conditions: read-out: PARP-3 (DC50); probe compound P1.
In the next series the target is PARP-2 (Homo sapiens (Human), UniProt Q9UGN5). As to conditions: read-out: PARP-2 (DC50); probe compound P1.
The subject of series [6] is Capan-1 human pancreatic cancer tumors. Description: In vivo efficacy, Capan-1 BRCA-2 mutated mouse model, single agent. As to conditions: oral. More on the design: species or system Balb, athymic Nu/Nu male mice.
Text: as §1
For series [7], the system named is ovarian cancer patients with confirmed BRCA-1 mutations. As to conditions: phase I, monotherapy, preliminary data; cited from earlier work.

Sequence of PARP-3 (Q9Y6F1 whole entry): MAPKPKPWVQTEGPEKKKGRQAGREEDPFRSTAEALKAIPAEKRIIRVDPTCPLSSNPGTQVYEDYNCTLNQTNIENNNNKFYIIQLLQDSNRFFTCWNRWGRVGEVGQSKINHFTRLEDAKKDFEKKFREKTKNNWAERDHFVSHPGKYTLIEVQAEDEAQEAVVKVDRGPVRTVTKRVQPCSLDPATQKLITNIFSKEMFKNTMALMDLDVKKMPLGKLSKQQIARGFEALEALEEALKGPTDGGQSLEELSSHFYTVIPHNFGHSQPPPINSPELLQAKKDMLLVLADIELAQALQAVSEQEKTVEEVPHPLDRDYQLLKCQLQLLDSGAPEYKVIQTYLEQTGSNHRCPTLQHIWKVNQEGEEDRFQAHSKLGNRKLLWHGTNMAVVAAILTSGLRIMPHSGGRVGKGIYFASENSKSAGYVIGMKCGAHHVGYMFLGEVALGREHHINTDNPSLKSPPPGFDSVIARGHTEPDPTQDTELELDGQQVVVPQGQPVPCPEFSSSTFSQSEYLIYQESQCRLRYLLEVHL
Sequence of PARP-2 (Q9UGN5 whole entry): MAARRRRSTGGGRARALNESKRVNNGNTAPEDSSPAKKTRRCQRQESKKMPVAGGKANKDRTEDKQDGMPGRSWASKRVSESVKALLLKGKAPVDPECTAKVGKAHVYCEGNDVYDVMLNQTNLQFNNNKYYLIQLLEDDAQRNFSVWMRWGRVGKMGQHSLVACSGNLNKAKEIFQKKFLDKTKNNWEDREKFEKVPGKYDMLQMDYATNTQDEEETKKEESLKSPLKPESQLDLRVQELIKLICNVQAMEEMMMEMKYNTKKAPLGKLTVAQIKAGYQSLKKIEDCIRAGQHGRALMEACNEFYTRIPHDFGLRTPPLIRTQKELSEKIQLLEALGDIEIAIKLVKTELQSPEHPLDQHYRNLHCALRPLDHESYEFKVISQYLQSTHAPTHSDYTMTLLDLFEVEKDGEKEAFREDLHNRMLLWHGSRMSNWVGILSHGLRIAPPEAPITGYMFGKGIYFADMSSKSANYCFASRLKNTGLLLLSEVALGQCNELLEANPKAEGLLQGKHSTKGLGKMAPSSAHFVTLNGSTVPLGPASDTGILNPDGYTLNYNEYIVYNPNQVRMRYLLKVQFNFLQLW
T1 sequence (P09874 whole entry): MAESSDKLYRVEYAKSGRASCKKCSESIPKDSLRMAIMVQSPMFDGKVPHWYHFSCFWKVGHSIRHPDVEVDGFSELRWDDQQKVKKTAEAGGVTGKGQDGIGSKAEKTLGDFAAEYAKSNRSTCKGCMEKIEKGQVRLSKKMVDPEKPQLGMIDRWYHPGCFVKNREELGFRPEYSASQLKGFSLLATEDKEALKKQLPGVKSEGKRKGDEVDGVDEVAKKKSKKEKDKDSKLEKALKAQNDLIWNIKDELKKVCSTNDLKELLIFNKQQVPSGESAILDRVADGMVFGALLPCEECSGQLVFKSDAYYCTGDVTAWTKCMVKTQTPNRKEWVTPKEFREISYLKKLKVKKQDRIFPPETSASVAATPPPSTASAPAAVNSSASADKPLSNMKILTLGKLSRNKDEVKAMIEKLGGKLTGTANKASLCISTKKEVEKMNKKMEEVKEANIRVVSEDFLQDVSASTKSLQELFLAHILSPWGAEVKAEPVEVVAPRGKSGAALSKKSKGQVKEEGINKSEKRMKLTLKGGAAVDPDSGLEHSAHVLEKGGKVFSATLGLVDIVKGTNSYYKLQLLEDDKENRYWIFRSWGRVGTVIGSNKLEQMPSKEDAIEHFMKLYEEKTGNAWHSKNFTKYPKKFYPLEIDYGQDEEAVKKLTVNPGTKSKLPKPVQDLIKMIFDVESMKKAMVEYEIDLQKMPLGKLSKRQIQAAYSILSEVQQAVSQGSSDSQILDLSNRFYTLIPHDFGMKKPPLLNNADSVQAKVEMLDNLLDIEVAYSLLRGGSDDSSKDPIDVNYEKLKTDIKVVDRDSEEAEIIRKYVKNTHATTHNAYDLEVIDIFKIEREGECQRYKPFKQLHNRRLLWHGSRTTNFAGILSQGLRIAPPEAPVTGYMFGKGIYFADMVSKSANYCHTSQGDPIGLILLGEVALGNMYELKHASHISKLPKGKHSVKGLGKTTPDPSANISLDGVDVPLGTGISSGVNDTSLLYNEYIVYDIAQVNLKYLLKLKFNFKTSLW
Experimental for PARP-2: as §2, §3, §4, §5
Experimental for PARP-3: as §2, §3, §4, §5

Consider `CC1c2cccc(C(N)=O)c2C(=O)N1C1CCN(C2CCCCC2)CC1` (racemic) [Compound 3, 2-(1-Cyclohexylpiperidin-4-yl)-1-methyl-3-oxo-2,3-dihydro-1H-isoindole-4-carboxamide], for which the “Toxicity (body weight reduction, mice affected out of 7 treated)” value in series [1] (100 mg/kg) is 0/7. The compound also came in with a dissociation constant Kd at PARP-1 [2] of less than 10 nM. For the same compound, the IC50 in series [3] is 280 nM. Moreover, the DC50 at PARP-1 [4] is less than 250 nM. For the same compound, the “C-max (oral)” value in [5] amounted to 2.53 µM. In “in vivo”, the volume of distribution (Vd) amounted to 3.61 L/kg, the clearance came out at 32.6 mL/min/kg, the AUC(0-t) came to 13.5 µM·h and the half-life was 3.04 h. Further, at PARP-3, the DC50 is greater than 10000 nM. For the same compound, on PARP-2, the DC50 is greater than 10000 nM. In addition, the “Max TGI (%)” value in series [6] (100 mg/kg, schedule 1-10 daily) was 51%.

Turning to `O=C(c1cc(Cc2n[nH]c(=O)c3ccccc23)ccc1F)N1CCN(C(=O)C2CC2)CC1` [AZD2281], in series [7], the partial responses was 4 out of 10.

For `C[C@H]1c2cccc(C(N)=O)c2C(=O)N1C1CCN(C2CCCCC2)CC1` [Compound 4, (1S)-2-(1-Cyclohexylpiperidin-4-yl)-1-methyl-3-oxo-2,3-dihydro-1H-isoindole-4-carboxamide], the “Toxicity (body weight reduction, mice affected out of 7 treated)” value in series [1] (75 mg/kg) is 0/7. This compound also registered a Kd on PARP-1 [2] of less than 10 nM. Besides, in [3], the half-inhibitory concentration (IC50) was determined as 150 nM. Besides, the DC50 at PARP-1 [4] was less than 250 nM. For the same compound, the “C-max (oral)” value in series [5] worked out at 1.37 µM. Further, in “in vivo”, the distribution volume (Vd) turned out to be 6.8 L/kg, the clearance turned out to be 53.4 mL/min/kg, the AUC(0-t) amounted to 4.93 µM·h and the half-life was 2.62 h. The DC50 at PARP-3 was greater than 10000 nM. At PARP-2, the DC50 was greater than 10000 nM. Also, the “Max TGI (%)” value in series [6] (75 mg/kg, schedule 1-10 daily) stood at 52%.

Take `CC1c2cccc(C(N)=O)c2C(=O)N1C1CCN(C2CCCC2)CC1` (centres unmarked) [Compound 13, 2-(1-Cyclopentylpiperidin-4-yl)-1-methyl-3-oxo-2,3-dihydro-1H-isoindole-4-carboxamide]: the “Toxicity (body weight reduction, mice affected out of 7 treated)” value in series [1] (100 mg/kg) is reported as 0/7. In addition, the half-maximal inhibitory concentration (IC50) in series [3] was found to be 500 nM. Further, on PARP-1 [4] (probe compound P1), the DC50 was less than 250 nM. In addition, on PARP-1 [4] (read-out: PARP-1 (Kd), probe compound P3), the Kd was determined as 50 nM. Further, in series [5], the “C-max (oral)” value was determined as 3.64 µM. In “in vivo”, the Vd is 4.7 L/kg, the clearance turned out to be 26.7 mL/min/kg, the AUC(0-t) amounted to 18.3 µM·h and the half-life is 2.9 h. Also, the DC50 at PARP-3 is greater than 10000 nM. The DC50 at PARP-2 is 1460 nM. Moreover, the “Max TGI (%)” value in series [6] (100 mg/kg, schedule 1-20 daily) was found to be 18%.

As to `CC1c2cccc(C(N)=O)c2C(=O)N1C1CCN(CC2CCCCC2)CC1` (centres unmarked) [Compound 21, 2-[1-(Cyclohexylmethyl)piperidin-4-yl]-1-methyl-3-oxo-2,3-dihydro-1H-isoindole-4-carboxamide], in series [1] (100 mg/kg), the “Toxicity (body weight reduction, mice affected out of 7 treated)” value is 0/7. Also, the concentration for half-maximal inhibition (IC50) in series [3] turned out to be 1200 nM. Further, the “C-max (oral)” value in [5] came out at 1.2 µM. In the series “in vivo”, the volume of distribution (Vd) was 4.9 L/kg, the clearance is 23 mL/min/kg, the exposure AUC(0-t) was found to be 7.39 µM·h and the half-life was 6.6 h. Moreover, the DC50 at PARP-3 is greater than 10000 nM. Besides, the DC50 on PARP-2 is greater than 10000 nM. Further, the “Max TGI (%)” value in series [6] (100 mg/kg, schedule 1-20 daily) is 23%.

The Kd is a measure of binding affinity in units of concentration. Usually IC50 stands for the concentration that gives 50% inhibition. As a reminder, the Vd is the apparent volume that relates the amount in the body to the concentration in plasma or blood. A high value points to extensive tissue distribution. As usually defined, the clearance is the volume of plasma or blood freed of the substance per unit of time. Low readings indicate a low capacity for elimination, high ones a high capacity for elimination. A word on the AUC(0-t): it is the area under the concentration-time curve up to a stated or last time point. Low readings indicate less exposure, high ones more exposure. The term half-life denotes the time needed for the level to fall by half in the phase considered. The low end stands for rapid decline, the high end for slow decline.
